Data taken from patent US10844092B2, “Peptide for promoting regeneration of dentin or dental pulp tissue” (HysensBio Co., Ltd., priority 2016, dated 2020).

System: Dspp gene
Experiment: mRNA level of Dspp gene in MDPC-23 cells by real-time PCR
Format: cell-based, mouse
Conditions: 48 hours, ratio relative to Dspp mRNA level of control group, triplicate
Description: The MDPC-23 cells cultured in Example 2-1 were treated with the peptides of the respective groups which were synthesized in Example 1, and cultured for 48 hours. Then, mRNA levels of an odontoblast differentiation marker Dspp gene expressed in the MDPC-23 cells were measured, and a ratio of the measured Dspp mRNA level relative to a Dspp mRNA level measured in a control group was calculated, respectively (Tables 13 to 24). Further, mean values of the Dspp mRNA levels measured in the peptides of respective groups were compared between the groups (FIG. 1B). In this regard MDPC-23 cells which were treated with none of the peptides of the present invention were used as a control group.
The expression levels of the Dspp gene were measured by RT-PCR and real time PCR analysis: In detail, total RNA was extracted from the MDPC-23 cells with TRIzol reagent. 2 μg of the total RNA, 1 μl of reverse transcriptase, and 0.5 μg oligo (dT) were used to synthesize cDNA. The synthesized cDNA were used in real-time polymerase chain reaction. The real-time polymerase chain reaction was performed on an ABI PRISM 7500 sequence detection system (Applied Biosystems) using the following primers and a SYBR GREEN PCR Master Mix (Takara, Japan). The real-time polymerase chain reaction was performed under conditions of 94° C., 1 min; 95° C., 15 sec 60° C., 34 sec for 40 cycles. Results were analyzed by a comparative cycle threshold (CT) method. In this regard, Gapdh gene was used as an internal control. The experiments were performed in triplicate, and then mean values and standard deviations thereof were taken as measured values.

Substance | mRNA level of Dspp gene, Mean
1 (KYQRRKKNKY; Synthetic construct of novel peptide) [compound 1] | 1.754
2 (KYQRRKRNKY; Synthetic construct of novel peptide) [compound 2] | 1.646
3 (KYQRRRKNKY; Synthetic construct of novel peptide) [compound 3] | 1.464
4 (KYQRRRRNKY; Synthetic construct of novel peptide) [compound 4] | 1.855
5 (KYQRKKKNKY; Synthetic construct of novel peptide) [compound 5] | 1.639
6 (KYQRKRKNKY; Synthetic construct of novel peptide) [compound 6] | 1.746
7 (KYQRKKRNKY; Synthetic construct of novel peptide) [compound 7] | 1.864
8 (KYQRKRRNKY; Synthetic construct of novel peptide) [compound 8] | 1.639
9 (KYQRRKKSKY; Synthetic construct of novel peptide) [compound 9] | 1.854
10 (KYQRRKRSKY; Synthetic construct of novel peptide) [compound 10] | 1.746
11 (KYQRRRKSKY; Synthetic construct of novel peptide) [compound 11] | 1.639
12 (KYQRRRRSKY; Synthetic construct of novel peptide) [compound 12] | 1.548
13 (KYQRKKKSKY; Synthetic construct of novel peptide) [compound 13] | 1.685
14 (KYQRKRKSKY; Synthetic construct of novel peptide) [compound 14] | 1.846
15 (KYQRKKRSKY; Synthetic construct of novel peptide) [compound 15] | 1.964
16 (KYQRKRRSKY; Synthetic construct of novel peptide) [compound 16] | 1.739
17 (KYQRRKKNYK; Synthetic construct of novel peptide) [compound 17] | 2.117
18 (KYQRRKRNYK; Synthetic construct of novel peptide) [compound 18] | 2.319
19 (KYQRRRKNYK; Synthetic construct of novel peptide) [compound 19] | 1.931
20 (KYQRRRRNYK; Synthetic construct of novel peptide) [compound 20] | 2.553
21 (KYQRKKKNYK; Synthetic construct of novel peptide) [compound 21] | 1.893
22 (KYQRKRKNYK; Synthetic construct of novel peptide) [compound 22] | 2.412

Substance | mRNA level of Dspp gene, Mean
23 (KYQRKKRNYK; Synthetic construct of novel peptide) [compound 23] | 2.171
24 (KYQRKRRNYK; Synthetic construct of novel peptide) [compound 24] | 2.212
25 (KYQRRKKSYK; Synthetic construct of novel peptide) [compound 25] | 2.371
26 (KYQRRKRSYK; Synthetic construct of novel peptide) [compound 26] | 2.193
27 (KYQRRRKSYK; Synthetic construct of novel peptide) [compound 27] | 1.993
28 (KYQRRRRSYK; Synthetic construct of novel peptide) [compound 28] | 2.453
29 (KYQRKKKSYK; Synthetic construct of novel peptide) [compound 29] | 1.883
30 (KYQRKRKSYK; Synthetic construct of novel peptide) [compound 30] | 2.512
31 (KYQRKKRSYK; Synthetic construct of novel peptide) [compound 31] | 2.371
32 (KYQRKRRSYK; Synthetic construct of novel peptide) [compound 32] | 2.219
33 (KYRQRKKNKY; Synthetic construct of novel peptide) [compound 33] | 1.712
34 (KYRQRKRNKY; Synthetic construct of novel peptide) [compound 34] | 1.931
35 (KYRQRRKNKY; Synthetic construct of novel peptide) [compound 35] | 1.983
36 (KYRQRRRNKY; Synthetic construct of novel peptide) [compound 36] | 2.319
37 (KYRQKKKNKY; Synthetic construct of novel peptide) [compound 37] | 1.597
38 (KYRQKRKNKY; Synthetic construct of novel peptide) [compound 38] | 2.116
39 (KYRQKKRNKY; Synthetic construct of novel peptide) [compound 39] | 1.712
40 (KYRQKRRNKY; Synthetic construct of novel peptide) [compound 40] | 2.219
41 (KYRQRKKSKY; Synthetic construct of novel peptide) [compound 41] | 1.546
42 (KYRQRKRSKY; Synthetic construct of novel peptide) [compound 42] | 1.586
43 (KYRQRRKSKY; Synthetic construct of novel peptide) [compound 43] | 1.669
44 (KYRQRRRSKY; Synthetic construct of novel peptide) [compound 44] | 1.793

Substance | mRNA level of Dspp gene, Mean
45 (KYRQKKKSKY; Synthetic construct of novel peptide) [compound 45] | 1.532
46 (KYRQKRKSKY; Synthetic construct of novel peptide) [compound 46] | 1.887
47 (KYRQKKRSKY; Synthetic construct of novel peptide) [compound 47] | 1.697
48 (KYRQKRRSKY; Synthetic construct of novel peptide) [compound 48] | 1.558
49 (KYRQRKKNYK; Synthetic construct of novel peptide) [compound 49] | 1.923
50 (KYRQRKRNYK; Synthetic construct of novel peptide) [compound 50] | 1.887
51 (KYRQRRKNYK; Synthetic construct of novel peptide) [compound 51] | 1.601
52 (KYRQRRRNYK; Synthetic construct of novel peptide) [compound 52] | 2.019
53 (KYRQKKKNYK; Synthetic construct of novel peptide) [compound 53] | 1.592
54 (KYRQKRKNYK; Synthetic construct of novel peptide) [compound 54] | 1.437
55 (KYRQKKRNYK; Synthetic construct of novel peptide) [compound 55] | 1.663
56 (KYRQKRRNYK; Synthetic construct of novel peptide) [compound 56] | 1.701
57 (KYRQRKKSYK; Synthetic construct of novel peptide) [compound 57] | 2.039
58 (KYRQRKRSYK; Synthetic construct of novel peptide) [compound 58] | 1.998
59 (KYRQRRKSYK; Synthetic construct of novel peptide) [compound 59] | 1.792
60 (KYRQRRRSYK; Synthetic construct of novel peptide) [compound 60] | 2.107
61 (KYRQKKKSYK; Synthetic construct of novel peptide) [compound 61] | 2.301
62 (KYRQKRKSYK; Synthetic construct of novel peptide) [compound 62] | 1.672
63 (KYRQKKRSYK; Synthetic construct of novel peptide) [compound 63] | 1.769
64 (KYRQKRRSYK; Synthetic construct of novel peptide) [compound 64] | 1.967
65 (KYKQRKKNKY; Synthetic construct of novel peptide) [compound 65] | 1.723
66 (KYKQRKRNKY; Synthetic construct of novel peptide) [compound 66] | 1.627
